In PMC7883873, “Discovery of New Catalytic Topoisomerase II Inhibitors for Anticancer Therapeutics” (Frontiers in Oncology, 2021):

Key:
[1] = tested on: AR target genes such as PSA and FKBP5; assay: Real-time PCR of AR target genes; assay type: cell-based; conditions: LNCaP and LNCaP95 cells, 0-20 µM, −/+10nM DHT
U937 leukemia cells = assay: Cell viability, MTS assay; assay type: cell-based; conditions: T60 alone, up to 20 µM
Method: (§1) Cell proliferation rates were measured by using the CellTitre 96 AqueousOne kit (Promega) and bromodeoxyuridine (BrdU) assay kit (Millipore) according to the manufacturer’s protocol as we have described ([51]). Cytotoxicity was evaluated by using the commercial kit (CAT# 8078, ThermoFisher). Culture media was collected and used to measure lactate dehydrogenase (LDH) levels by a colorimetric method following the manufacture’s protocol (ThermoFisher). Cell cycling was assessed by using BrdU incorporation into S-phase DNA by using the APC BrdU flow kit (BD Pharmingen; Franklin Lakes, New Jersey) according to the manufacturer’s protocol. 1 mM of BrdU was added to cells and incubated for 6 h. Cells were incubated with anti-BrdU antibody and stained with 7-AAD before processing the cells for flow cytometry ([52]). Immunoblotting assays followed the standard protocol as we have reported ([51]–[53]).

MR49F = assay: Cell viability, MTS assay; assay type: cell-based; conditions: 0-20 µM
Method: as §1

DU145 = assay: Cell viability, MTS assay; assay type: cell-based; conditions: 0-20 µM; compared to AR-positive PCa cell lines
Method: as §1

PC3 = assay: Cell viability, MTS assay; assay type: cell-based; conditions: 0-20 µM; compared to AR-positive PCa cell lines
Method: as §1

NCCIT testicular cells = assay: Cell viability, MTS assay; assay type: cell-based; conditions: T60 alone, up to 20 µM
Method: as §1

LNCaP = assay: Cell viability, MTS assay; assay type: cell-based; conditions: 0-20 µM
Method: as §1

LNCaP95 = assay: Cell viability, MTS assay; assay type: cell-based; conditions: 0-20 µM
Method: as §1

BPH1 = assay: Cell viability, MTS assay; assay type: cell-based; conditions: 0-20 µM; compared to AR-positive PCa cell lines
Method: as §1

TOP2B = TOP2B (Homo sapiens, UniProt Q02880); assay: DNA relaxation assay (supercoiled pHOT-1 plasmid); assay type: biochemical; set-up: full-length human TOP2A and TOP2B protein (TopoGEN and Inspiralis respectively); purchased Inspiralis HTB205; conditions: densitometry of SC bands; read-out: IC50, inhibition of TOP2B plasmid DNA relaxation
Chain of TOP2B (Q02880 whole entry): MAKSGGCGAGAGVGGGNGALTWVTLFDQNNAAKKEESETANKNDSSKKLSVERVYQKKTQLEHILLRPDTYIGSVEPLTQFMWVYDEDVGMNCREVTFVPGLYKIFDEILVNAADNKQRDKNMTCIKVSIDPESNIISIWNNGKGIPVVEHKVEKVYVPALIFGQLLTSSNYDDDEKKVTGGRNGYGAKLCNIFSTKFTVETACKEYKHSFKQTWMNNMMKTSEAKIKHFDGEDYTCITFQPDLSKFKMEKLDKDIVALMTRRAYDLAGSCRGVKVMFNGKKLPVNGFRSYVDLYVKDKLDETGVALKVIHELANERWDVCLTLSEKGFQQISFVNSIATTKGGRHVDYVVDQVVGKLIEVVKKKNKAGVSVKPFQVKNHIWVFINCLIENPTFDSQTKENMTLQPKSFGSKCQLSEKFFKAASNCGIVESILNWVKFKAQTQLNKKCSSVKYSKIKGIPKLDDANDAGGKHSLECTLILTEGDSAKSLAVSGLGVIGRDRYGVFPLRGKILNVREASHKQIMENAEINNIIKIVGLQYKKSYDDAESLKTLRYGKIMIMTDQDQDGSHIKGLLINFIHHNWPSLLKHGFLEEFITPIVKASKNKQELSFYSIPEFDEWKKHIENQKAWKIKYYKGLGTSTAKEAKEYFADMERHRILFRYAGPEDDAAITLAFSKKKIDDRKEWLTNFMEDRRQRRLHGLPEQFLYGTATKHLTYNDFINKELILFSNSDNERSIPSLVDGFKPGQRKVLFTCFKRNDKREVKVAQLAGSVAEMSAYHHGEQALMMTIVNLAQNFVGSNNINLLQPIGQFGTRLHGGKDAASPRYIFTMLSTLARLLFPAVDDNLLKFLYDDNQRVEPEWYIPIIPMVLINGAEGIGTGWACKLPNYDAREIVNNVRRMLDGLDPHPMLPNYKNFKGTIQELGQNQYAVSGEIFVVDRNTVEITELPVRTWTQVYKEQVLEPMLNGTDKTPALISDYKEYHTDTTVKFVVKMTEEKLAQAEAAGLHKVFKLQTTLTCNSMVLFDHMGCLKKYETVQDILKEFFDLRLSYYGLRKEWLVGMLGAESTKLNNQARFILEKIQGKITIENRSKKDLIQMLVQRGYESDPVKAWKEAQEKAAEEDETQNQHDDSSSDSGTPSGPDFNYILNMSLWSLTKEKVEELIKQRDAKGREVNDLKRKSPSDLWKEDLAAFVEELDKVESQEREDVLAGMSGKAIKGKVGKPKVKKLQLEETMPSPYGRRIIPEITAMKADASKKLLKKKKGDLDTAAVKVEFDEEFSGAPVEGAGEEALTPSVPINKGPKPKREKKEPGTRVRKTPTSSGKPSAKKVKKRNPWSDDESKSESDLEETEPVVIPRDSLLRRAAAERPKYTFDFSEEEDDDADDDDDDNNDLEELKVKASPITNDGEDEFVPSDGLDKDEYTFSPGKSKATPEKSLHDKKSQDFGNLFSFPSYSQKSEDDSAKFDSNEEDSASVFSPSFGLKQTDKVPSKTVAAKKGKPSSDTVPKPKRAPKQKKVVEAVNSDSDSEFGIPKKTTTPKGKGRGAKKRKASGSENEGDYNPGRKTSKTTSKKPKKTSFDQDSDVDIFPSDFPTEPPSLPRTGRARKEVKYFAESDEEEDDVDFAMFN
Method: The human TOP2A and TOP2B were used to perform DNA relaxation assays. […] The reaction was incubated at 37C for 2 h and stopped by adding 2 µl of 10% SDS and 1 µl of 250 mM of EDTA, followed by the addition of 50 µg/ml of proteinase K at 45 C for 1 h. The reaction was then resolved by electrophoresis on a 1% agarose gel at 80 V and stained with 0.5 µg/ml ethidium bromide for 15 min. DNA bands were visualized using a gel imager (Gel Doc™ EZ System) and quantified using the Image Studio™ Lite Quantification Software.

TOP2A (431–1193) = biological target: T1, TOP2A (431–1193) (Homo sapiens, UniProt P11388); assay: Electrophoresis mobility shift assay (EMSA); assay type: binding; conditions: 200 µM; 30 µM protein, 300 nM 5ZRF oligo
T1 construct: was incorporated with TOP2A (431–1193); made in house; host or cells: Escherichia coli BL21 co-expressing biotin ligase
T1 sequence (P11388 431-1193): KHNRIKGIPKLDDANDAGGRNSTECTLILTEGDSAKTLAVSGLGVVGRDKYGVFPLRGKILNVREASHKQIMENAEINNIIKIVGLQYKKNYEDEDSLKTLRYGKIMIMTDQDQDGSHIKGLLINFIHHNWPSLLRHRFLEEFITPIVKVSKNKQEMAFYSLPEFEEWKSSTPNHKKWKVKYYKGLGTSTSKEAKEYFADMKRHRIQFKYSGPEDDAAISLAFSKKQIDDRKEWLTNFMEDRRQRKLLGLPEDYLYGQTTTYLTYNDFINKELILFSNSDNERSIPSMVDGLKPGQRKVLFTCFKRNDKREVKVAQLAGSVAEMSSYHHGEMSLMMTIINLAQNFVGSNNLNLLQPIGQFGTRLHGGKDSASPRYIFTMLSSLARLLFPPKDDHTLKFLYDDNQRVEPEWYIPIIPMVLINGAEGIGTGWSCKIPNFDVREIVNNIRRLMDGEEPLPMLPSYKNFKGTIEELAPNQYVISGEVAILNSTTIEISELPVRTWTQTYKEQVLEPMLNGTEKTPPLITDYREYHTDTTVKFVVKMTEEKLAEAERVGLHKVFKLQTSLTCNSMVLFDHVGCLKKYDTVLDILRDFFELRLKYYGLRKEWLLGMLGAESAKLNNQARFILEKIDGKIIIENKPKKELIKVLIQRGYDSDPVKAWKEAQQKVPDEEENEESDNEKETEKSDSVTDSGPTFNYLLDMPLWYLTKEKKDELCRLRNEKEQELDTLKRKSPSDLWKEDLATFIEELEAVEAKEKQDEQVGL
Method: EMSA followed the standard protocols as we and others described with minor modifications ([54]–[56]). The double-strand DNA oligo, 5ZRF (AGCCGAGCTGCAGCTCGGCT labeled by IRDye700) was purchased from IDT (Coralville, USA). Human TOP2 (431–1193), TOP2A (TopoGEN) or TOP2B (Inspiralis) proteins were incubated with 300 nM of 5ZRF oligo in a standard 20 µl EMSA reaction in a reaction buffer containing 20 mM HEPES-NaOH, pH 7.4, 2 mM DTT, 3 mM MgCl2, 0.05% NP-40, protease inhibitors, and 0.1 µg poly[dI:dC]. After incubation for 30 min at 37C, reactions were loaded onto 4% non-denatured polyacrylamide gel in 0.5× TBE buffer. The DNA oligo bands were visualized by using the Li-Cor Odyssey 9120 Infrared Imaging System.

HeLa cells = assay: Confocal fluorescence microscopy; assay type: cell-based; conditions: 20 µM, 48 h
Method: Cells were fixed with 4% paraformaldehyde, treated in 0.25% Triton X-100 for 15 min, incubated with F-actin conjugated to Phalloidin-iFluor 488 (Abcam; UK), and mounted with DAPI staining mount (Vector Labs; Burlingame, USA). Cell images were captured by confocal microscopy at 63× magnification (Zeiss; Germany) ([51], [53]).

K562 cells = assay: Cell proliferation, MTS assay; assay type: cell-based; conditions: 0-20 µM, 0-72 h
Method: as §1

phospho-H2AXγ expression = assay: Phospho-H2AXγ expression in multiple cancer cell models; assay type: cell-based; conditions: 5 µM, 4 hours
Method: as §1

[2] = tested on: phospho-H2AXγ protein levels in K562 cells; assay: Immunoblotting of phospho-H2AXγ (DNA damage); assay type: cell-based; conditions: 4 h
Method: as §1

AR-v7 = assay: Probasin- and PSA-luciferase reporter in 293T cells; assay type: cell-based; conditions: 0-20 µM
salmon sperm DNA = assay: Ethidium bromide displacement assay; assay type: binding; conditions: increasing doses; 100 µg/ml DNA, 2 µg/ml ethidium bromide
Method: Ethidium bromide displacement assay was performed as previously described ([49], [50]) using Amsacrine (mAMSA) as a positive control. In a 20 µl reaction, compounds were mixed with 100 µg/ml of salmon sperm DNA and 2 µg/ml of ethidium bromide in a fluorescence buffer containing 10 mM HEPES, pH 7.9, 100 mM KCl, 5 mM MgCl2, 0.1 mM EDTA, pH 8.0. Triplicate reactions were subjected to fluorescence emission of 590 nm and excitation of 535 nm. Signals were detected by using the Multimode Microplate Reader, Infinite® F500.

[3] = tested on: K562, U937, NCI-H82, and NCCIT cancer cells; assay: Co-treatment with paclitaxel or camptothecin, MTS assay; assay type: cell-based; conditions: 5-20 µM T60 co-treatment
Method: as §1

Q: What does the source list for `O=C(Nc1ccc(Nc2ccccc2)cc1)c1ccc[nH]c1=S` [T60]?
A: mRNA expression of AR target genes (PSA, FKBP5) [1]: inhibited mRNA expression of AR target genes; Inhibition of cell growth, U937 (U937 leukemia cells): completely inhibited; Cell viability, MR49F (MR49F): strongly suppressed; Cell viability, DU145 (DU145): to a much less extent; Cell viability, PC3 (PC3): to a much less extent; Inhibition of cell growth, NCCIT (NCCIT testicular cells): 50%; Cell viability, LNCaP (LNCaP): strongly suppressed; Cell viability, LNCaP95 (LNCaP95): strongly suppressed; Cell viability, BPH1 (BPH1): to a much less extent; IC50 (TOP2B): ~8.9 µM; Abolishment of TOP2A (431–1193)-induced upshifted DNA band (TOP2A (431–1193)): abolished; Cell morphology (HeLa cells): enlarged cell bodies and nuclei; K562 cell proliferation (K562 cells): inhibited K562 cell proliferation in a dose- and time-dependent manner; DNA damage (phospho-H2AXγ expression) in all cell models (phospho-H2AXγ expression): not accompanied by DNA damage; Effect on etoposide-induced phospho-H2AXγ protein levels ([2]; 20 µM, co-treated with 10–20 µM etoposide): inhibited etoposide-induced phospho-H2AXγ protein levels; Intracellular DNA damage (phospho-H2AXγ protein levels) ([2]; 10–20 µM): did not cause intracellular DNA damage; Luciferase activities driven by probasin and PSA promoters, AR-v7 (AR-v7): inhibited luciferase activities; Fluorescence of ethidium bromide/DNA complex (DNA intercalation) (salmon sperm DNA): does not intercalate with DNA; Effect on effectiveness of paclitaxel and camptothecin in suppressing cancer cell growth [3]: enhanced the effectiveness of these drugs
